Data taken from US20130267551A1, “SUBSTITUTED HYDROGENATED THIENO-PYRROLO[3,2-C]PYRIDINE, LIGANDS, A PHARMACEUTICAL COMPOSITION AND A METHOD FOR USING THE ABOVE” (ALLA CHEM, LLC, priority 2010, published 2013).
Where a name gives a salt, the structure may show the parent alone.

How the values were obtained:
Dopaminergic D2L = Dopaminergic D2L (Homo sapiens, UniProt P14416); test: competitive radioligand binding, Dopaminergic D2L; conditions: compound concentration of 1 μM
Description: (§1) Profiles of pharmacological activity of thieno-pyrrolo[3,2-c]pyridines of the general formula 1. Biological activity test of compounds of the general formula 1 was carried out in the setting of competitive radioligand binding [I. Okun, S. Tkachenko, A. Khvat, et al., Current Alzheimer Research, 7(2), 97-112 (2010)], using a wide range of therapeutic targets including G-protein coupled receptors (GPCR), ion channels and neuromediator transporters. The tested activity was determined by quantitative measurement of radio-labelled ligand displacement by tested compounds of the general formula 1 at their concentration of 1 μM.

Adrenergic α1A = test: competitive radioligand binding, Adrenergic α1A; conditions: compound concentration of 1 μM
Description: as §1

Adrenergic α1B = test: competitive radioligand binding, Adrenergic α1B; conditions: compound concentration of 1 μM
Description: as §1

Adrenergic α2A = biological target: T1, Adrenergic α2A (Homo sapiens, UniProt P08913); test: competitive radioligand binding, Adrenergic α2A; conditions: compound concentration of 1 μM
T1 sequence (P08913 1-465): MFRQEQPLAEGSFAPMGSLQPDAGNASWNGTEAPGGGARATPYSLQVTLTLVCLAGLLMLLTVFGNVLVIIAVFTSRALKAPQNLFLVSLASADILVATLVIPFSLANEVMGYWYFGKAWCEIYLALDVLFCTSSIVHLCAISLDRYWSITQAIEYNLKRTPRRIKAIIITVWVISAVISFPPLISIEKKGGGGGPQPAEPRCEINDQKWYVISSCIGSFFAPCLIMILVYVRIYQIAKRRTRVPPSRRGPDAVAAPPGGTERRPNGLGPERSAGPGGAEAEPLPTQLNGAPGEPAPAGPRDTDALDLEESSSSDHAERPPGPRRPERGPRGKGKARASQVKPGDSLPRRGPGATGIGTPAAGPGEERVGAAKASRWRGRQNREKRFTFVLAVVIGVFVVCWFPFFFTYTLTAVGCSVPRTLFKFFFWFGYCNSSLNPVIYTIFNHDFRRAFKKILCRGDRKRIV
Description: as §1

Adrenergic α1D = biological target: T2, Adrenergic α1D (Homo sapiens, UniProt P25100); test: competitive radioligand binding, Adrenergic α1D; conditions: compound concentration of 1 μM
T2 sequence (P25100 1-572): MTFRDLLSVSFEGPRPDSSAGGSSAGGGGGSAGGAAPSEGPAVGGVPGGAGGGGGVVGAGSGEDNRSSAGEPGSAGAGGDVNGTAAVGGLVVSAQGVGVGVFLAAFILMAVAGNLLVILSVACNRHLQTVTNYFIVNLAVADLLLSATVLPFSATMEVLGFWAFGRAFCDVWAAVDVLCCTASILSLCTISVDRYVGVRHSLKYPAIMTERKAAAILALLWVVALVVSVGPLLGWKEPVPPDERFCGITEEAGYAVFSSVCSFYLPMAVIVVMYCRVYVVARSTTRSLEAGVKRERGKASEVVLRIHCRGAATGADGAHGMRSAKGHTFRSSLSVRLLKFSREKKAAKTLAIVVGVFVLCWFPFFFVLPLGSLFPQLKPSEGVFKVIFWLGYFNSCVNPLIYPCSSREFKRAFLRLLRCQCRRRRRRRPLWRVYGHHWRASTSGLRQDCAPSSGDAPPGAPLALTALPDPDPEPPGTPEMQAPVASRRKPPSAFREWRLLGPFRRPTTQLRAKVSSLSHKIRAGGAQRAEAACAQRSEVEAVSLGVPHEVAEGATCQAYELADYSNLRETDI
Description: as §1

Serotoninergic 5-HT1B = test: competitive radioligand binding, Serotoninergic 5-HT1B; conditions: compound concentration of 1 μM
Description: as §1

Histaminergic H1 = Histaminergic H1 (Homo sapiens, UniProt P35367); test: competitive radioligand binding, Histaminergic H1; conditions: compound concentration of 1 μM
Description: as §1

Serotoninergic 5-HT2B = Serotoninergic 5-HT2B (Homo sapiens, UniProt P41595); test: competitive radioligand binding, Serotoninergic 5-HT2B; conditions: compound concentration of 1 μM
Description: as §1

Serotoninergic 5-HT1A = biological target: T3, Serotoninergic 5-HT1A (Homo sapiens, UniProt P08908); test: competitive radioligand binding, Serotoninergic 5-HT1A; conditions: compound concentration of 1 μM
T3 sequence (P08908 1-422): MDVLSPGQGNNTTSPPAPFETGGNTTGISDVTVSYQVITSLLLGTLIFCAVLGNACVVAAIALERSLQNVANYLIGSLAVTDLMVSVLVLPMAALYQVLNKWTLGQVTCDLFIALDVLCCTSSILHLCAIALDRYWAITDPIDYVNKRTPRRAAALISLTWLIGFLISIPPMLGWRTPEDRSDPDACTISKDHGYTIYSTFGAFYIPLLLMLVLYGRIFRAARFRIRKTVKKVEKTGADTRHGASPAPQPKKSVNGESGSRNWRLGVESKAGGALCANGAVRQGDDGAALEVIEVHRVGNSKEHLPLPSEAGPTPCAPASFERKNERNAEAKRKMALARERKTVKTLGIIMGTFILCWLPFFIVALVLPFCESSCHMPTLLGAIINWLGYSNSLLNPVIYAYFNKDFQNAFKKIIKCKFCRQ
Description: as §1

Serotoninergic 5-HT2C = biological target: T4, Serotoninergic 5-HT2C (Homo sapiens, UniProt P28335); test: competitive radioligand binding, Serotoninergic 5-HT2C; conditions: compound concentration of 1 μM
T4 sequence (P28335 33-458): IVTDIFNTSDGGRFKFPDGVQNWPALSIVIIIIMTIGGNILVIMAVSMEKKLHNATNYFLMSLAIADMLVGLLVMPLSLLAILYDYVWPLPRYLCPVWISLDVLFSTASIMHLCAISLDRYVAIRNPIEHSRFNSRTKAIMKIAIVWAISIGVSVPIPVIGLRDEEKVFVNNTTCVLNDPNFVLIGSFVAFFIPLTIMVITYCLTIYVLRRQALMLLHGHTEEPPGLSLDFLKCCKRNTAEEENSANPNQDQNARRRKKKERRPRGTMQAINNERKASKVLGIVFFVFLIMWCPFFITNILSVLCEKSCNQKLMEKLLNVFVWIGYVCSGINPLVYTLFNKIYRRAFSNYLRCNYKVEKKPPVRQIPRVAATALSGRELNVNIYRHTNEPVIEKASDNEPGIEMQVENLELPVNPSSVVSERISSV
Description: as §1

Serotoninergic 5-HT6 = Serotoninergic 5-HT6 (Homo sapiens, UniProt P50406); test: competitive radioligand binding, Serotoninergic 5-HT6; conditions: compound concentration of 1 μM
Description: as §1

Serotoninergic 5-HT2A = Serotoninergic 5-HT2A (Homo sapiens, UniProt P28223); test: competitive radioligand binding, Serotoninergic 5-HT2A; conditions: compound concentration of 1 μM
Description: as §1

Histaminergic H2 = Histaminergic H2 (Homo sapiens, UniProt P25021); test: competitive radioligand binding, Histaminergic H2; conditions: compound concentration of 1 μM
Description: as §1

Dopaminergic D4.2 = biological target: T5, Dopaminergic D4.2 (Homo sapiens, UniProt P21917, DEL265-296); test: competitive radioligand binding, Dopaminergic D4.2; conditions: compound concentration of 1 μM
T5 sequence (P21917 with tags, fused parts or gaps DEL265-296): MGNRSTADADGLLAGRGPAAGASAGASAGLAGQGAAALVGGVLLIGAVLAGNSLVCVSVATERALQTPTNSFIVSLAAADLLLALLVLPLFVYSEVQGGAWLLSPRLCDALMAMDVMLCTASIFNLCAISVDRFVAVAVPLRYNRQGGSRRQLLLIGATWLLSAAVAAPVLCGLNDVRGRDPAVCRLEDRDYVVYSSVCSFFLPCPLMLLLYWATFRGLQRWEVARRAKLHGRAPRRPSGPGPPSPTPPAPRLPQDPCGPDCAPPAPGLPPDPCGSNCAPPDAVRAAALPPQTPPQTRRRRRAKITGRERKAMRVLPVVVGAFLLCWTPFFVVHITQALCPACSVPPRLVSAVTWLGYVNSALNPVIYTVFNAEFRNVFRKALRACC
Description: as §1

Dopaminergic D1 = Dopaminergic D1 (Homo sapiens, UniProt P21728); test: competitive radioligand binding, Dopaminergic D1; conditions: compound concentration of 1 μM
Description: as §1

Histaminergic H3 = Histaminergic H3 (Homo sapiens, UniProt Q9Y5N1); test: competitive radioligand binding, Histaminergic H3; conditions: compound concentration of 1 μM; in % (unit assumed)
Description: as §1

Dopaminergic D3 = Dopaminergic D3 (Homo sapiens, UniProt P35462); test: competitive radioligand binding, Dopaminergic D3; conditions: compound concentration of 1 μM
Description: as §1

Serotoninergic 5-HT7 = Serotoninergic 5-HT7 (Homo sapiens, UniProt P34969); test: competitive radioligand binding, Serotoninergic 5-HT7; conditions: compound concentration of 1 μM
Description: as §1

Dopaminergic D2S = Dopaminergic D2S (Homo sapiens, UniProt P14416); test: competitive radioligand binding, Dopaminergic D2S; conditions: compound concentration of 1 μM
Description: as §1

[1] = tested on: Therapeutic targets (Adrenergic, Dopaminergic, Histaminergic, Serotoninergic); test: Profiles of pharmacological activity in competitive radioligand binding (whole panel); conditions: 1 μM, grades not defined
Description: as §1

Sequence of Histaminergic H2 (P25021 whole entry): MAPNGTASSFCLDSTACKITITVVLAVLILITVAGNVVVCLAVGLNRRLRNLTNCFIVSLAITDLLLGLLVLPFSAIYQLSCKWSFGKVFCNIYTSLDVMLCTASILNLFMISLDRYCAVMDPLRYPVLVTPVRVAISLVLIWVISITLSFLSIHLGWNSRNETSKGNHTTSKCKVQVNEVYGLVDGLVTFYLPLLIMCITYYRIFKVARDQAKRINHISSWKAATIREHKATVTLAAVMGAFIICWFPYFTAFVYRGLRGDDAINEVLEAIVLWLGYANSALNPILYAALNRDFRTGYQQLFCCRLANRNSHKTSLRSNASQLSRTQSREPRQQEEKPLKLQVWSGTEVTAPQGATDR
Sequence of Serotoninergic 5-HT2A (P28223 whole entry): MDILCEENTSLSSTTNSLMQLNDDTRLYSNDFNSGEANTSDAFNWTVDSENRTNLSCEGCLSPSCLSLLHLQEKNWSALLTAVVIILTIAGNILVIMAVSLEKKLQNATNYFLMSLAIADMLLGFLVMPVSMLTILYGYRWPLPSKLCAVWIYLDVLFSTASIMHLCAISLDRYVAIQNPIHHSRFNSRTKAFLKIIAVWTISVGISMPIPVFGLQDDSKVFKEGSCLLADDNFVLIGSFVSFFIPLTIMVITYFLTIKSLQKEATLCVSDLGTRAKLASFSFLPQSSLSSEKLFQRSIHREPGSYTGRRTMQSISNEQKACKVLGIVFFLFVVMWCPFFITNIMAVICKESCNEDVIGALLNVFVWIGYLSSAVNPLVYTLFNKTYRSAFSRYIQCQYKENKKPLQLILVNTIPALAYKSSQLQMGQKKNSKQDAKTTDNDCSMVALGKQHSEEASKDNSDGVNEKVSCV
Sequence of Serotoninergic 5-HT7 (P34969 whole entry): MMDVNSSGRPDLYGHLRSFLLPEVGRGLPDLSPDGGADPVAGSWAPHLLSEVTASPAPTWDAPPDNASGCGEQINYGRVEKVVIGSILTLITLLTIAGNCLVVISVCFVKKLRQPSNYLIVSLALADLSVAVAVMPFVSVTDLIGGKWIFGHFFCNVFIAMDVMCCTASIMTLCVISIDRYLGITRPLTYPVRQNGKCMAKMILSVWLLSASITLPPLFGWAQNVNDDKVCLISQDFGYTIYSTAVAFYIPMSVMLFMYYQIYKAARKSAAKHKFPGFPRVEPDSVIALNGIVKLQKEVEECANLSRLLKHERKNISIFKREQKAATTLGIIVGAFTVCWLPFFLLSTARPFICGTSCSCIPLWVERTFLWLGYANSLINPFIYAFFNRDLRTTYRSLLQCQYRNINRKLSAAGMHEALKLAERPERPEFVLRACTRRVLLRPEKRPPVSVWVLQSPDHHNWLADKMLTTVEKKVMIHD
Sequence of Dopaminergic D3 (P35462 whole entry): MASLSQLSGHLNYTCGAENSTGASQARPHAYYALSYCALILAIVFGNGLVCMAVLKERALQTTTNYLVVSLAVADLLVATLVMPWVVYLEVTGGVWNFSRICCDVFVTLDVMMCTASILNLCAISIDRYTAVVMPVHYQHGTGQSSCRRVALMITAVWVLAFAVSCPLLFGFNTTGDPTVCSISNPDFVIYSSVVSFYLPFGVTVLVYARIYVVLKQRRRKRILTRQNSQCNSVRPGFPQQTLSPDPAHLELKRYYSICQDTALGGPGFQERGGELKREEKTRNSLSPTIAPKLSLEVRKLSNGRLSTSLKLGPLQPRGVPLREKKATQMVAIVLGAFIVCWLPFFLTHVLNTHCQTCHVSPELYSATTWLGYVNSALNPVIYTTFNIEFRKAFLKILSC
Sequence of Dopaminergic D2S (P14416 1-414 isoform P14416-2): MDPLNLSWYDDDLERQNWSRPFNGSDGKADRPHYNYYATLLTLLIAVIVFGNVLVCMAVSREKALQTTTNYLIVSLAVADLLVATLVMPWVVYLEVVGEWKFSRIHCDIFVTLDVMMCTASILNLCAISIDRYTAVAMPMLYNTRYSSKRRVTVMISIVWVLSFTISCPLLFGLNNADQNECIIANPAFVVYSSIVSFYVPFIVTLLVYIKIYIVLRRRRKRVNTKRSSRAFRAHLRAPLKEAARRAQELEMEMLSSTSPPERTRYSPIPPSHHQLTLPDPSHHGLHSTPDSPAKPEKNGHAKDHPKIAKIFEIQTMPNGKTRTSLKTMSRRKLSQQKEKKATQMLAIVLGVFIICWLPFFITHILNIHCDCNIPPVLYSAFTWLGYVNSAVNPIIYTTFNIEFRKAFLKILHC
Sequence of Dopaminergic D1 (P21728 whole entry): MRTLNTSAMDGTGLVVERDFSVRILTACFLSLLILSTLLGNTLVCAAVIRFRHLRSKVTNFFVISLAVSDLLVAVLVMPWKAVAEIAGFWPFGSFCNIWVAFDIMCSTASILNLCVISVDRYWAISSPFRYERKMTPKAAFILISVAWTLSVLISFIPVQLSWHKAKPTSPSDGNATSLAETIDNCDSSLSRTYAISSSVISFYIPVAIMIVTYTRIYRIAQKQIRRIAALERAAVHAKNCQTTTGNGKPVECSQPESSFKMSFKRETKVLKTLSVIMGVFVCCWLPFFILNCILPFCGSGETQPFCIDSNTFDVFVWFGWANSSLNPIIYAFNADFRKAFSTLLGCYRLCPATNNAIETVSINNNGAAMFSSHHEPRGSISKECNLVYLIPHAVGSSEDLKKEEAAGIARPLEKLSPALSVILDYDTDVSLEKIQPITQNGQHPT
Sequence of Histaminergic H1 (P35367 whole entry): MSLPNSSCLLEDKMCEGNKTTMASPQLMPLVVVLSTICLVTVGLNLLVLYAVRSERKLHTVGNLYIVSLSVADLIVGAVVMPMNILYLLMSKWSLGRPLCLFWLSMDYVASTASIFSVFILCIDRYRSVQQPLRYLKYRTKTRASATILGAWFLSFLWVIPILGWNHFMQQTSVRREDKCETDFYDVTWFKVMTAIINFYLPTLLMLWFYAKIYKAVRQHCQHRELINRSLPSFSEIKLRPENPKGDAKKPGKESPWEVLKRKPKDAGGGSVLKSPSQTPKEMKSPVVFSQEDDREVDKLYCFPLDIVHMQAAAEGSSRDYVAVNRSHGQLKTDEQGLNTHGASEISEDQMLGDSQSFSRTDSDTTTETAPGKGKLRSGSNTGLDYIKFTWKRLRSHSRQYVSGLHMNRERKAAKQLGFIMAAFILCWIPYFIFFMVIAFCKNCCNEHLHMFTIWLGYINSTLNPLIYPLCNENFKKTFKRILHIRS
Sequence of Dopaminergic D2L (P14416 whole entry): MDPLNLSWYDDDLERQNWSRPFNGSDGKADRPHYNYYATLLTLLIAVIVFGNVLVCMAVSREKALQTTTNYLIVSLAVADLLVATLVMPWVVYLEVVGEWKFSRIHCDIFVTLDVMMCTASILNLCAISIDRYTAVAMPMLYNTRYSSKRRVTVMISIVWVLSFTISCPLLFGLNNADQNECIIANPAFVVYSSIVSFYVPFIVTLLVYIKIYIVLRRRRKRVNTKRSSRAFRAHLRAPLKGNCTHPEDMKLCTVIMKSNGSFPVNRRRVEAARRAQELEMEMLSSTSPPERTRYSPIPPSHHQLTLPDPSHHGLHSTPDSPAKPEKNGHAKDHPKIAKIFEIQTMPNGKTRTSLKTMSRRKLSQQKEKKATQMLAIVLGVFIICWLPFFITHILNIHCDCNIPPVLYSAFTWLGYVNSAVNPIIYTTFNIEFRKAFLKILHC
Sequence of Histaminergic H3 (Q9Y5N1 whole entry): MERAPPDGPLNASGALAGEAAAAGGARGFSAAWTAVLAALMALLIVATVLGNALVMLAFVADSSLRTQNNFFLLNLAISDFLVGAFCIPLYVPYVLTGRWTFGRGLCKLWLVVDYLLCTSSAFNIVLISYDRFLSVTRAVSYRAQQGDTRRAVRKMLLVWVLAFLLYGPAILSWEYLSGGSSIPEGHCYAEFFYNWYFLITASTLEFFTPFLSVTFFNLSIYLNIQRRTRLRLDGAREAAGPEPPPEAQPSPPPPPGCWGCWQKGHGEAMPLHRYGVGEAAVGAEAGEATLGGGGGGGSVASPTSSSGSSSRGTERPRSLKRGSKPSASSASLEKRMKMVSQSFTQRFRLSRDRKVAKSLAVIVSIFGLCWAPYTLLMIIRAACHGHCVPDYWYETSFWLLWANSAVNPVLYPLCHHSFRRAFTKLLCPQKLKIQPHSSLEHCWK
Sequence of Serotoninergic 5-HT2B (P41595 whole entry): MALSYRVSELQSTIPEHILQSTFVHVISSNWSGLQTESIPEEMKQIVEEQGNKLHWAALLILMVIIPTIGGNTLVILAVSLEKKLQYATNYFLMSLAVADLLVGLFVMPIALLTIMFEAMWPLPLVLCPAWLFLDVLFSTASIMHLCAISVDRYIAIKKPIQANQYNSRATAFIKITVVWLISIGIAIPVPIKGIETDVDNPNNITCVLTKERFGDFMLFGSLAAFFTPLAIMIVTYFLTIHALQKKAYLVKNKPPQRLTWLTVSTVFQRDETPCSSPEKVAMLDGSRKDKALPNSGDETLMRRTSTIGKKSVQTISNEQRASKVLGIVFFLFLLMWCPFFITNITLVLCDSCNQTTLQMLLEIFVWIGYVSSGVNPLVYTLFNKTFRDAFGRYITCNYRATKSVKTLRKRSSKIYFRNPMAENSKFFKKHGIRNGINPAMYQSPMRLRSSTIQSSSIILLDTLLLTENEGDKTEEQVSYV
Sequence of Serotoninergic 5-HT6 (P50406 whole entry): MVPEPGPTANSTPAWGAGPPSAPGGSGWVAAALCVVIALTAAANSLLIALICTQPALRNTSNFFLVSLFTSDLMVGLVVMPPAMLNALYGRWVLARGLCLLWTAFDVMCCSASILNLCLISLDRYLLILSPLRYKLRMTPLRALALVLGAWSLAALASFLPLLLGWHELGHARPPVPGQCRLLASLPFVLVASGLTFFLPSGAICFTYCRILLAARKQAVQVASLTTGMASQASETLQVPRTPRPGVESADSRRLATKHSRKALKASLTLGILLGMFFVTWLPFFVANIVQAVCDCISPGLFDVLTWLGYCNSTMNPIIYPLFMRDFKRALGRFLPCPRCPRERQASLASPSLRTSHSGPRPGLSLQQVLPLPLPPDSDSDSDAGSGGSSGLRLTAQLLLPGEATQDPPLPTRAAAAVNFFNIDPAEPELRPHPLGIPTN

SMILES	radio-labelled ligand displacement, Dopaminergic D2L (Dopaminergic D2L)	radio-labelled ligand displacement, Adrenergic α1A (Adrenergic α1A)	radio-labelled ligand displacement, Adrenergic α1B (Adrenergic α1B)	radio-labelled ligand displacement, Adrenergic α2A (Adrenergic α2A)	radio-labelled ligand displacement, Adrenergic α1D (Adrenergic α1D)	radio-labelled ligand displacement, Serotoninergic 5-HT1B (Serotoninergic 5-HT1B)	radio-labelled ligand displacement, Histaminergic H1 (Histaminergic H1)	radio-labelled ligand displacement, Serotoninergic 5-HT2B (Serotoninergic 5-HT2B)	radio-labelled ligand displacement, Serotoninergic 5-HT1A (Serotoninergic 5-HT1A)	radio-labelled ligand displacement, Serotoninergic 5-HT2C (Serotoninergic 5-HT2C)	radio-labelled ligand displacement, Serotoninergic 5-HT6 (Serotoninergic 5-HT6)	radio-labelled ligand displacement, Serotoninergic 5-HT2A (Serotoninergic 5-HT2A)	radio-labelled ligand displacement, Histaminergic H2 (Histaminergic H2)	radio-labelled ligand displacement, Dopaminergic D4.2 (Dopaminergic D4.2)	radio-labelled ligand displacement, Dopaminergic D1 (Dopaminergic D1)	radio-labelled ligand displacement, Histaminergic H3 (Histaminergic H3)	radio-labelled ligand displacement, Dopaminergic D3 (Dopaminergic D3)	radio-labelled ligand displacement, Serotoninergic 5-HT7 (Serotoninergic 5-HT7)	radio-labelled ligand displacement, Dopaminergic D2S (Dopaminergic D2S)	grade of the activity profile (poor / satisfactory / good) [1]
Cc1cc2c3c(n(CCc4ccc(Cl)cc4)c2s1)C(C)CN(C)C3 (stereo not shown) [3.6(4)•HCl, 2,5,7-trimethyl-8-(4-chlorophenethyl)-4,5,6,7-tetrahydro-5H-thieno[3′,2′:4,5]pyrrolo[3,2-c]pyridine]	45%	89%	91%	93%	89%	41%	95%	78%	29%	96%	99%	97%	63%	54%	56%	8	63%	99%	72%	good
Cc1cc2c3c(n(CC(O)c4ccccc4)c2s1)CCN(C)C3.Cl (stereo not shown) [3.7(1)•HCl, 2-(2,5-Dimethyl-4,5,6,7-tetrahydro-5H-thieno[3′,2′:4,5]pyrrolo[3,2-c]pyridin-8-yl)-1-phenylethanol hydrochloride]	35%	79%	89%	91%	86%	30%	89%	63%	18%	94%	99%	97%	57%	33%	47%	−3	23%	96%	29%	–
Cc1ccc(C=CCn2c3c(c4cc(C)sc42)CN(C)CC3)cc1 [3.11(2)•HCl, 2,5-dimethyl-8-[3-(p-tolyl)allyl]-4,5,6,7-tetrahydro-5H-thieno[3′,2′:4,5]pyrrolo[3,2-c]pyridine]	50%	55%	60%	53%	42%	39%	81%	89%	21%	93%	95%	93%	50%	13%	10%	7	49%	85%	61%	satisfactory
Cc1csc2c1c1c(n2CCCc2ccccc2)CCN(C)C1 [3.12(1)•HCl]	82%	98%	99%	101%	92%	54%	98%	91%	43%	97%	101%	99%	99%	73%	57%	11	75%	98%	89%	good
